Reference: ChEMBL document CHEMBL3991601, “The target landscape of clinical kinase drugs” (Science, 2017)
Activity calls are given as the source filed them.

Key:
[1] = target: T1, Uncharacterized protein FLJ45252 (Homo sapiens, UniProt Q6ZSR9); conditions: read-out: Kd apparent; k-562, colo 205, sk-n-be(2) and mv-4-11
T1 sequence (Q6ZSR9 whole entry): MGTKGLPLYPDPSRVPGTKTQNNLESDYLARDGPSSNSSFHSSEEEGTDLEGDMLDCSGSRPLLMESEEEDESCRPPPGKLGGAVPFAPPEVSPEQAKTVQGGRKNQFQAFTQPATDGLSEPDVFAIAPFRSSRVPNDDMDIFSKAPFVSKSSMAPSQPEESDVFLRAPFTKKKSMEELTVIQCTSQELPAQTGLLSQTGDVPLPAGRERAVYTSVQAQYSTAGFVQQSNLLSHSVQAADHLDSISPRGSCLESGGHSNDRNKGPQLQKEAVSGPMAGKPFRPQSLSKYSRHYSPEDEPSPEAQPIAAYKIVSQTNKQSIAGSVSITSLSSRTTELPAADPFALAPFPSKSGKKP

[2] = target: Structural maintenance of chromosomes protein 2 (Homo sapiens, UniProt O95347)
[3] = target: cAMP-dependent protein kinase type II-alpha regulatory subunit (Homo sapiens, UniProt P13861)
[4] = target: T2, Serine/threonine-protein kinase TBK1 (Homo sapiens, UniProt Q9UHD2)
T2 sequence (Q9UHD2 whole entry): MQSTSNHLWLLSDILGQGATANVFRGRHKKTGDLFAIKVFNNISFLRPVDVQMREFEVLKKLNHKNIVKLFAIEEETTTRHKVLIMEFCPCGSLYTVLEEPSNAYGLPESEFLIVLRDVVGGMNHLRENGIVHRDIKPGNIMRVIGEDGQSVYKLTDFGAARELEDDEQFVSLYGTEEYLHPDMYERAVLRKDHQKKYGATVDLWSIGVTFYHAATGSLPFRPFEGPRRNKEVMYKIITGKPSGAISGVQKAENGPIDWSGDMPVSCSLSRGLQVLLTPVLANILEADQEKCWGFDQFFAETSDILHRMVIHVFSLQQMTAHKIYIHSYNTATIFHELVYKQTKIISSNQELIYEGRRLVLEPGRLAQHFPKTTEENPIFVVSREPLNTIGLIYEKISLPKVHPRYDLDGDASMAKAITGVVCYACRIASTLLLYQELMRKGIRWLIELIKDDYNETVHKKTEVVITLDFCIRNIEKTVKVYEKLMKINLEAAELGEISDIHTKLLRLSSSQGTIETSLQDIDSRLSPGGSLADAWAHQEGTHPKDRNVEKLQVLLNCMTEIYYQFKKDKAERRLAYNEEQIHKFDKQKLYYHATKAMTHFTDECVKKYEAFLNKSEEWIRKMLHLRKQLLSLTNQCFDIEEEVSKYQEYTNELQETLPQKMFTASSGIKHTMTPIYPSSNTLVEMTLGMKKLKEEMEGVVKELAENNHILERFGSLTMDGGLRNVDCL

[5] = target: Mitogen-activated protein kinase kinase kinase kinase 1 (Homo sapiens, UniProt Q92918)
[6] = target: T3, STE20-related kinase adapter protein alpha (Homo sapiens, UniProt Q7RTN6)
T3 sequence (Q7RTN6 whole entry): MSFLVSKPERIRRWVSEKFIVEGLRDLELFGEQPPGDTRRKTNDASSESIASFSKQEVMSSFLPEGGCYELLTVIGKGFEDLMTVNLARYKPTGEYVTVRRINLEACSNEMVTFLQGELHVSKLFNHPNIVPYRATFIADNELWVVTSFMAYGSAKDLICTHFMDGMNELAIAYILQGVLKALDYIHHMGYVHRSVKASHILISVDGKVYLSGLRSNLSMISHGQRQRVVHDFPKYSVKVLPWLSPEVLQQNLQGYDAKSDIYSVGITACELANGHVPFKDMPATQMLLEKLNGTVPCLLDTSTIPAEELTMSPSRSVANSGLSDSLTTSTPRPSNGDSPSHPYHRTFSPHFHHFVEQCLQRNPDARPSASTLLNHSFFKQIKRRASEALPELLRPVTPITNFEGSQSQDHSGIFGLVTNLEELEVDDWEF

[7] = target: T4, Ras-related protein Rab-10 (Homo sapiens, UniProt P61026)
T4 sequence (P61026 whole entry): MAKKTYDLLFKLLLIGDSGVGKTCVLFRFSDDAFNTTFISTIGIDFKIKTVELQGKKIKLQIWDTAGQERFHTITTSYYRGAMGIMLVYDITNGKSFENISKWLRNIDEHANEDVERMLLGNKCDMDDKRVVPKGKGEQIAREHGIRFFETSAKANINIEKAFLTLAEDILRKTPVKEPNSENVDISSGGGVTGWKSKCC

[8] = target: Cyclin-dependent kinase 3 (Homo sapiens, UniProt Q00526)
Scaffold protein ILK = target: T5, Scaffold protein ILK (Homo sapiens, UniProt Q13418)
T5 sequence (Q13418 whole entry): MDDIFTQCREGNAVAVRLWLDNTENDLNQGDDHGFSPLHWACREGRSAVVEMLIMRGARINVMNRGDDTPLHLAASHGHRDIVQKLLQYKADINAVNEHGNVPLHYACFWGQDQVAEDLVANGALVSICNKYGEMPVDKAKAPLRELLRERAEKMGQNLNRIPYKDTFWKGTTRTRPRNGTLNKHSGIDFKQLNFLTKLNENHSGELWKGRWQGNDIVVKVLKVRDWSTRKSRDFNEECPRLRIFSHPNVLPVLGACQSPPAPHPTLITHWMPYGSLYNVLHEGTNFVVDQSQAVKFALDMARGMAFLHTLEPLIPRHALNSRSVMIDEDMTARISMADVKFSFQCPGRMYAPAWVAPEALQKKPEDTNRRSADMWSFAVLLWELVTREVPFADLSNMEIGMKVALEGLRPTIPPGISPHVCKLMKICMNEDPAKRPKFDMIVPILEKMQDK

Activated CDC42 kinase 1 = Activated CDC42 kinase 1 (Homo sapiens, UniProt Q07912)
[9] = target: Myosin light chain kinase, smooth muscle (Homo sapiens, UniProt Q15746)
[10] = target: 26S proteasome regulatory subunit 6B (Homo sapiens, UniProt P43686)
Also: in the data inactive means no Kd found up to 30 µM.

Mitogen-activated protein kinase kinase kinase kinase 1, sequence (Q92918 whole entry): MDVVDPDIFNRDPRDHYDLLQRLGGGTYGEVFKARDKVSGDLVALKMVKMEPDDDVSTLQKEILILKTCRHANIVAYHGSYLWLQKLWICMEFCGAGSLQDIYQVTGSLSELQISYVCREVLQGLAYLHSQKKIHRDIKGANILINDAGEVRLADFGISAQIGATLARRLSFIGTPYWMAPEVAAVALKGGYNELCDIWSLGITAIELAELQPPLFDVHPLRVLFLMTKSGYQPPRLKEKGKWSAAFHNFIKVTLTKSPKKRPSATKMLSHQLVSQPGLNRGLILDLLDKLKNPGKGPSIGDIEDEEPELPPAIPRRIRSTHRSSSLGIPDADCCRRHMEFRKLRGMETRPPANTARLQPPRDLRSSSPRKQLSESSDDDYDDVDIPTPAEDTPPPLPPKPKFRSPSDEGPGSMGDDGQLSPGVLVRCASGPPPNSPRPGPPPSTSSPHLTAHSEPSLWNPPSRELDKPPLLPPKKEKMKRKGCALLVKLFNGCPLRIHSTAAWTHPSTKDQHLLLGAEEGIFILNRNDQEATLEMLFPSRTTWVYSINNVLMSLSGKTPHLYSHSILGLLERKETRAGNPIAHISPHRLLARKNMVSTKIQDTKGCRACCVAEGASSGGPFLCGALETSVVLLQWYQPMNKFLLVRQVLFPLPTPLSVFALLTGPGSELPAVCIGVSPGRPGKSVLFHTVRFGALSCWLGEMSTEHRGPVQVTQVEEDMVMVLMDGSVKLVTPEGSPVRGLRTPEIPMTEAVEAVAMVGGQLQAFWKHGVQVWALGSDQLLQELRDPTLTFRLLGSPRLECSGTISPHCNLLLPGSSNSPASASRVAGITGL
Structural maintenance of chromosomes protein 2, sequence (O95347 whole entry): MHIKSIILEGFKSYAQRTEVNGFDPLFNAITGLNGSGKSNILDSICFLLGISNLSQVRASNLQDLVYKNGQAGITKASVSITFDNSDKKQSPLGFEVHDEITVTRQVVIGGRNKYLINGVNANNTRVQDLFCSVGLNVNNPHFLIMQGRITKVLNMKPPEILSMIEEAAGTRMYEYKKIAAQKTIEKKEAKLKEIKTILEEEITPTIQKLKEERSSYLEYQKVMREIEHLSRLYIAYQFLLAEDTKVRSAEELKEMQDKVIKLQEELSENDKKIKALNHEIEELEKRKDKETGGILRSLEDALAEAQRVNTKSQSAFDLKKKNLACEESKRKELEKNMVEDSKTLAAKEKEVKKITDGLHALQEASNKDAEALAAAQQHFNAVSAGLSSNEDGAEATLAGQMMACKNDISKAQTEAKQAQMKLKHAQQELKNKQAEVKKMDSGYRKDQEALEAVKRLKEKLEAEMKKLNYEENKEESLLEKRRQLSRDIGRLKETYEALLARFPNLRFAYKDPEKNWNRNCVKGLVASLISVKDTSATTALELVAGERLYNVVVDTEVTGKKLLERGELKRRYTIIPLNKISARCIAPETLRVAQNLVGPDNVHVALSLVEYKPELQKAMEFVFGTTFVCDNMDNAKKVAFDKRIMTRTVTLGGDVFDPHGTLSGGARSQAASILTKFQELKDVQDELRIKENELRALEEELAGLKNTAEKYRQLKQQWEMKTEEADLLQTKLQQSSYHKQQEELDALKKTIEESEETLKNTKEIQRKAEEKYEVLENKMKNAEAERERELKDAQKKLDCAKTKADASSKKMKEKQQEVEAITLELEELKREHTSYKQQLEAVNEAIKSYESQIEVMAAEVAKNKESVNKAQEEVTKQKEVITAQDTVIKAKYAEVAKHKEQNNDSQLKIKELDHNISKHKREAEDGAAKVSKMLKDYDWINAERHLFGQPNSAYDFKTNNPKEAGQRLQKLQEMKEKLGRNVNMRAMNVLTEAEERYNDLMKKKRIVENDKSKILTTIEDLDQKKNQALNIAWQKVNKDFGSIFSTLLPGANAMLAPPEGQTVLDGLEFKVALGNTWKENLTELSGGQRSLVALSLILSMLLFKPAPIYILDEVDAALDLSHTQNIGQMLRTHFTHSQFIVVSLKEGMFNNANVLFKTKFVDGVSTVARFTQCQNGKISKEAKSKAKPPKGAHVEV
Cyclin-dependent kinase 3, sequence (Q00526 whole entry): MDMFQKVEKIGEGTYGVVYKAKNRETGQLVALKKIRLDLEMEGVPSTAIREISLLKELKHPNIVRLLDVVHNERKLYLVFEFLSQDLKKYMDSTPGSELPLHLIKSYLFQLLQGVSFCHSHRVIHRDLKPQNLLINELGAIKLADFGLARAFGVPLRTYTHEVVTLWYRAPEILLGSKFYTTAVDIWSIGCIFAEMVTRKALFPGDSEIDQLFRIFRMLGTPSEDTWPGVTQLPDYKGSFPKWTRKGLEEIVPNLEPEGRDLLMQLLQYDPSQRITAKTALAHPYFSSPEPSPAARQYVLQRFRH
cAMP-dependent protein kinase type II-alpha regulatory subunit, sequence (P13861 whole entry): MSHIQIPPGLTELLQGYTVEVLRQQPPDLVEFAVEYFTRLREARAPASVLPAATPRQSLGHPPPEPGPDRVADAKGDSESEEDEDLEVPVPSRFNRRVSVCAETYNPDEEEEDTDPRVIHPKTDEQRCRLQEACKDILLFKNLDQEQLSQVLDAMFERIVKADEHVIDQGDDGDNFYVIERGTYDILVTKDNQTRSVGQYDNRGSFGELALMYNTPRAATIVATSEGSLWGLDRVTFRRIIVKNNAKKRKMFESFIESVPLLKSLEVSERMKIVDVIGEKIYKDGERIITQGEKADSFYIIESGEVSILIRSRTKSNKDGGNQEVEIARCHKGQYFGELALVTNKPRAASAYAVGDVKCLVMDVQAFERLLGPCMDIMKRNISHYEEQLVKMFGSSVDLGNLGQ
Myosin light chain kinase, smooth muscle, sequence (Q15746 whole entry): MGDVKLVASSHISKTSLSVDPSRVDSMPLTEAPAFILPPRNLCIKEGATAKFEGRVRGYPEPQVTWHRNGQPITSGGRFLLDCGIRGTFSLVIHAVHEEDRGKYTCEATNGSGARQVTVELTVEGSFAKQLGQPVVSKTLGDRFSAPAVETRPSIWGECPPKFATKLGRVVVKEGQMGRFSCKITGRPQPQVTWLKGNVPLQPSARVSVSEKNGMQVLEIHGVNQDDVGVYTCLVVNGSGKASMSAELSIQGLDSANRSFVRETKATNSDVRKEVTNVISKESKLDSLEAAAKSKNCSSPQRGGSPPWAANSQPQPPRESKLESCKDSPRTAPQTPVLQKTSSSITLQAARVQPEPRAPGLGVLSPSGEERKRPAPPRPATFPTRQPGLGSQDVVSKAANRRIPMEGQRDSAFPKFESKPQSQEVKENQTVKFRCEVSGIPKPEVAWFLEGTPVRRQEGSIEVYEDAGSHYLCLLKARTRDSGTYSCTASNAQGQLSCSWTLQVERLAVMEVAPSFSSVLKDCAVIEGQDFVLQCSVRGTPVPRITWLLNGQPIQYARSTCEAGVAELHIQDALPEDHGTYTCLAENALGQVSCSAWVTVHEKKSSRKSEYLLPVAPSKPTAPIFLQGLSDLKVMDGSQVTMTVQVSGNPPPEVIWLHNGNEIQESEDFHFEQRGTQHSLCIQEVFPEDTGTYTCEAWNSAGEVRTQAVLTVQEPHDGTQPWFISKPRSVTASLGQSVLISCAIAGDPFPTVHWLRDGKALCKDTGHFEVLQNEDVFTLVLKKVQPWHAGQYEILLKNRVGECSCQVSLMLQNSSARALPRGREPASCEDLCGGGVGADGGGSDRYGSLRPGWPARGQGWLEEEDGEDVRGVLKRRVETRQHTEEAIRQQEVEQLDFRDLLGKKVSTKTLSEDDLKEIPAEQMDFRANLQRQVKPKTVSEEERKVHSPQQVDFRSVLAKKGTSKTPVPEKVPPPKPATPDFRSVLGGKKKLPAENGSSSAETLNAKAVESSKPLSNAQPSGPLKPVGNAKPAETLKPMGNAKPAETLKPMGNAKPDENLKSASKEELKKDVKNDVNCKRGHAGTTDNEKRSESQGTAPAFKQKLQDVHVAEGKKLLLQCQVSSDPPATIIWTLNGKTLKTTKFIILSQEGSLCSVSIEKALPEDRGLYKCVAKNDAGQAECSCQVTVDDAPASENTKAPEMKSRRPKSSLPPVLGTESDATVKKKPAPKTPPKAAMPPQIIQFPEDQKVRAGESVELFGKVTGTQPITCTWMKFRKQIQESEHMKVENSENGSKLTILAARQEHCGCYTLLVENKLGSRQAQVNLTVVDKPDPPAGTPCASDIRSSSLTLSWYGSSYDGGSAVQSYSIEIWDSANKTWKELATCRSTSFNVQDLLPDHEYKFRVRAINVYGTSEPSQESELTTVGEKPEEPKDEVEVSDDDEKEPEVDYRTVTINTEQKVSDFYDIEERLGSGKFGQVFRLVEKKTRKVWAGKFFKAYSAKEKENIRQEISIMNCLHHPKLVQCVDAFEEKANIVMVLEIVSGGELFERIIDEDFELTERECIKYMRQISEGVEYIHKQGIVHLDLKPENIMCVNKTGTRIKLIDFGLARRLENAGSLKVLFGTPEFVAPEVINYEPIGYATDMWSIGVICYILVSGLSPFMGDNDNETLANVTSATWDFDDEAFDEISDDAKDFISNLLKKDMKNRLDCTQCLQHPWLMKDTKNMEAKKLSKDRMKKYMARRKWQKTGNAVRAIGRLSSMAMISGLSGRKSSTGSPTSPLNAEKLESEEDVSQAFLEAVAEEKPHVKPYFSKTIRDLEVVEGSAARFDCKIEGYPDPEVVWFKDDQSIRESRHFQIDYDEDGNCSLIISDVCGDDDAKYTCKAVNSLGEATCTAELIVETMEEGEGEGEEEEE
26S proteasome regulatory subunit 6B, sequence (P43686 whole entry): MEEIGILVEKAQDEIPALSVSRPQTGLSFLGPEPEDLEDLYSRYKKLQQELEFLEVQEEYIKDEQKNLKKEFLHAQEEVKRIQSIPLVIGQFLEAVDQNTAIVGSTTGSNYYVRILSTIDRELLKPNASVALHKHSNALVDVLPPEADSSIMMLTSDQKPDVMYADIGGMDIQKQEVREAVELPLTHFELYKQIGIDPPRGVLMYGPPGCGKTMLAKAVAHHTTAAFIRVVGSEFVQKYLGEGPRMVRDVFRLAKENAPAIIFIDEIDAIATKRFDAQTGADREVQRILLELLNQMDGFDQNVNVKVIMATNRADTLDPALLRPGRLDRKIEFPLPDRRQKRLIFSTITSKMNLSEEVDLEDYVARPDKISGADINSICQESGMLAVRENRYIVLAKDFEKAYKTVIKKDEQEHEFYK

| SMILES | Kd [1] | Kd [2] | Kd [3] | Kd [4] | Kd [5] | Kd [6] | Kd [7] | Kd [8] | Kd (Scaffold protein ILK) | Kd (Activated CDC42 kinase 1) | Kd [9] | Kd [10] |
| --- | --- | --- | --- | --- | --- | --- | --- | --- | --- | --- | --- | --- |
| Cc1cc(C(=O)NOCCO)c(Nc2ccc(I)cc2F)n(C)c1=O [AZD-8330] | > 30 µM (inactive) | > 30 µM (inactive) | > 30 µM (inactive) | > 30 µM (inactive) | > 30 µM (inactive) | > 30 µM (inactive) | > 30 µM (inactive) | > 30 µM (inactive) | > 30 µM (inactive) | > 30 µM (inactive) | > 30 µM (inactive) | > 30 µM (inactive) |
| Cn1cnc2c(F)c(Nc3ccc(Br)cc3F)c(C(=O)NOCCO)cc21 [BINIMETINIB] | > 30 µM (inactive) | > 30 µM (inactive) | > 30 µM (inactive) | > 30 µM (inactive) | > 30 µM (inactive) | > 30 µM (inactive) | > 30 µM (inactive) | > 30 µM (inactive) | > 30 µM (inactive) | > 30 µM (inactive) | > 30 µM (inactive) | > 30 µM (inactive) |
| CCn1c(C(=O)N(C2CC2)C2CC2)cc2c3c(ncn3C)c(Nc3cc(C)n(C)n3)nc21 [BMS-911543] | > 30 µM (inactive) | > 30 µM (inactive) | > 30 µM (inactive) | > 30 µM (inactive) | > 30 µM (inactive) | > 30 µM (inactive) | > 30 µM (inactive) | > 30 µM (inactive) | > 30 µM (inactive) | > 30 µM (inactive) | > 30 µM (inactive) | > 30 µM (inactive) |
| COc1cc2ncnc(Oc3cccc(NC(=O)Nc4cc(C(C)(C)C(F)(F)F)on4)c3)c2cc1OC [CEP-32496] | > 30 µM (inactive) | > 30 µM (inactive) | > 30 µM (inactive) | > 30 µM (inactive) | > 30 µM (inactive) | > 30 µM (inactive) | > 30 µM (inactive) | > 30 µM (inactive) | > 30 µM (inactive) | > 30 µM (inactive) | 2.68 µM (active) | > 30 µM (inactive) |
| Cc1cc(Nc2ncc(Cl)c(Nc3ccccc3S(=O)(=O)C(C)C)n2)c(OC(C)C)cc1C1CCNCC1 [CERITINIB] | > 30 µM (inactive) | > 30 µM (inactive) | > 30 µM (inactive) | > 30 µM (inactive) | > 30 µM (inactive) | > 30 µM (inactive) | > 30 µM (inactive) | > 30 µM (inactive) | > 30 µM (inactive) | 0.929 µM (active) | > 30 µM (inactive) | > 30 µM (inactive) |
| COCC(=O)NC/C=C/c1ccc2ncnc(Nc3ccc(Oc4ccc(C)nc4)c(C)c3)c2c1 [CP-724714] | > 30 µM (inactive) | > 30 µM (inactive) | > 30 µM (inactive) | > 30 µM (inactive) | > 30 µM (inactive) | > 30 µM (inactive) | > 30 µM (inactive) | > 30 µM (inactive) | > 30 µM (inactive) | > 30 µM (inactive) | > 30 µM (inactive) | > 30 µM (inactive) |
| C#Cc1cccc(Nc2ncnc3cc(OC)c(OCCCCCCC(=O)NO)cc23)c1 [CUDC-101] | > 30 µM (inactive) | > 30 µM (inactive) | > 30 µM (inactive) | > 30 µM (inactive) | > 30 µM (inactive) | > 30 µM (inactive) | > 30 µM (inactive) | > 30 µM (inactive) | > 30 µM (inactive) | > 30 µM (inactive) | > 30 µM (inactive) | > 30 µM (inactive) |
| Cc1cccc(-c2nn3c(c2-c2ccnc4ccc(C(N)=O)cc24)CCC3)n1 [GALUNISERTIB] | > 30 µM (inactive) | > 30 µM (inactive) | > 30 µM (inactive) | > 30 µM (inactive) | > 30 µM (inactive) | > 30 µM (inactive) | > 30 µM (inactive) | > 30 µM (inactive) | > 30 µM (inactive) | > 30 µM (inactive) | > 30 µM (inactive) | > 30 µM (inactive) |
| COc1ccc(S(=O)(=O)N(C(C)=O)c2ccccc2/C=C/c2cc[n+]([O-])cc2)cc1 [HMN-214] | > 30 µM (inactive) | > 30 µM (inactive) | > 30 µM (inactive) | > 30 µM (inactive) | > 30 µM (inactive) | > 30 µM (inactive) | > 30 µM (inactive) | > 30 µM (inactive) | > 30 µM (inactive) | > 30 µM (inactive) | > 30 µM (inactive) | > 30 µM (inactive) |
| NC1(c2ccc(-c3nc4ccn5c(=O)[nH]nc5c4cc3-c3ccccc3)cc2)CCC1 [MK-2206] | > 30 µM (inactive) | > 30 µM (inactive) | > 30 µM (inactive) | > 30 µM (inactive) | > 30 µM (inactive) | > 30 µM (inactive) | > 30 µM (inactive) | > 30 µM (inactive) | > 30 µM (inactive) | > 30 µM (inactive) | > 30 µM (inactive) | > 30 µM (inactive) |
| CN(C[C@@H]1COCCO1)S(=O)(=O)Nc1ccc2ccc3ncc(-c4cnn(C)c4)cc3c(=O)c2c1 [MK-2461] | 2.59 µM (active) | > 30 µM (inactive) | > 30 µM (inactive) | > 30 µM (inactive) | > 30 µM (inactive) | > 30 µM (inactive) | > 30 µM (inactive) | > 30 µM (inactive) | > 30 µM (inactive) | > 30 µM (inactive) | > 30 µM (inactive) | > 30 µM (inactive) |
| Cn1cc(-c2cnc3ccc4ccc(CS(=O)(=O)NCc5ccccn5)cc4c(=O)c3c2)cn1 [MK-8033] | > 30 µM (inactive) | > 30 µM (inactive) | > 30 µM (inactive) | > 30 µM (inactive) | > 30 µM (inactive) | > 30 µM (inactive) | > 30 µM (inactive) | > 30 µM (inactive) | > 30 µM (inactive) | > 30 µM (inactive) | > 30 µM (inactive) | > 30 µM (inactive) |
| FC(F)(F)c1ccc(/C=C/c2nc(COc3ccc(CCCCn4ccnn4)cc3)co2)cc1 [MUBRITINIB] | > 30 µM (inactive) | > 30 µM (inactive) | > 30 µM (inactive) | > 30 µM (inactive) | > 30 µM (inactive) | > 30 µM (inactive) | > 30 µM (inactive) | > 30 µM (inactive) | > 30 µM (inactive) | > 30 µM (inactive) | > 30 µM (inactive) | > 30 µM (inactive) |
